Among the data in patent publication US12441691B2 (Cytokinetics, Inc., priority 2020, dated 2025) are AC1.4 values, retold here.

For this assay, the system named is rabbit skeletal myofibrils (fast skeletal myofibrils). Briefly: Activation of fast skeletal myofibrils (PUMA assay, AC1.4). In kind it is biochemical. Conditions: calcium at pCa25, AC1.4 = concentration at which the compound increased the enzymatic activity. Here is the method:
Preparation of fast skeletal myofibrils: Rabbit skeletal myofibrils were prepared based upon the method of Herrmann et al. (Biochem. 32(28):7255-7263(1993). Myofibrils were prepared from rabbit psoas muscle purchased from Pel-Freez Biologicals (Arkansas) within 2 days of ordering, stored on ice. Minced muscle was homogenized in 10 volumes of ice-cold “standard” buffer (50 mM Tris, pH 7.4, 0.1 M KOAc, 5 mM KCl, 2 mM dithiothreitol (DTT), 0.2 mM phenylmethylsulfonyl fluoride (PMSF), 10 μM leupeptin, 5 μM pepstatin, and 0.5 mM sodium azide) containing 5 mM ethylenediaminetetraacetic acid (EDTA) and 0.5% Triton X-100 using an Omni-Macro homogenizer. Myofibrils were recovered by low speed centrifugation (3000 rpm for 10 minutes) and washed 2 times in the Triton X-100 containing buffer to ensure removal of cellular membrane. Following the Triton washes, myofibrils were washed 3 times in “standard” buffer containing 2 mM magnesium acetate. A final wash in assay buffer (12 mM piperazine-1,4-bis(2-ethanesulfonic acid) (PIPES), pH 6.8, 60 mM KCl, 1 mM DTT) was performed and brought to 10% sucrose for flash freezing in liquid nitrogen and storage at −80° C.
Activation of Fast Skeletal Myofibrils: Fast fiber activators were identified by measuring the enzymatic activity of muscle myofibril preparations using the proprietary PUMA (trademark) (see, e.g., U.S. Pat. Nos. 6,410,254, 6,743,599, 7,202,051, and 7,378,254) assay system. Myofibril preparations consisted of rabbit skeletal muscle (approximately 90% fast fibers) that had been mechanically homogenized and washed with a detergent (Triton X-100) to remove cellular membranes. This preparation retained all of the sarcomeric components in a native conformation and the enzymatic activity was still regulated by calcium. Compounds were tested using a myofibril suspension and a level of calcium sufficient to increase enzymatic activity of the myofibrils to 25% of their maximal rate (termed pCa25). Enzymatic activity was tracked via a pyruvate kinase and lactate dehydrogenase-coupled enzyme system. This assay regenerates myosin-produced ADP into ATP by oxidizing NADH, producing an absorbance change at 340 nm. The buffering system was 12 mM PIPES, 2 mM MgCl2, 1 mM DTT at pH 6.8 (PM12 buffer). […] In Table 9, “Example Compound” refers to the compound labeled with the same number in Table 2.
With `CC(C)[C@H]1C(=O)Nc2ccccc2CN1C(=O)c1cnn(C)c1` [Compound 41, (S)-3-Isopropyl-4-(1-methyl-1H-pyrazole-4-carbonyl)-1,3,4,5-tetrahydro-2H-benzo[e][1,4]diazepin-2-one], the AC1.4 came to 0.96 µM.
On to `CC[C@H](C)[C@H]1C(=O)Nc2cc(F)ccc2CN1C(=O)CO` [Compound 42, (S)-3-((S)-sec-butyl)-8-fluoro-4-(2-hydroxyacetyl)-1,3,4,5-tetrahydro-2H-benzo[e][1,4]diazepin-2-one], for which the AC1.4 is 0.33 µM.
The figure for `CC[C@H](C)[C@H]1C(=O)Nc2cc(F)ccc2CN1C(=O)CCO` [Compound 43, (S)-3-((S)-sec-butyl)-8-fluoro-4-(3-hydroxypropanoyl)-1,3,4,5-tetrahydro-2H-benzo[e][1,4]diazepin-2-one] is 0.81 µM; for `CC[C@H](C)[C@H]1C(=O)Nc2c(F)cccc2CN1C(N)=O` [Compound 44, (S)-3-((S)-sec-butyl)-9-fluoro-2-oxo-1,2,3,5-tetrahydro-4H-benzo[e][1,4]diazepine-4-carboxamide] it is 0.26 µM.
On to `CC[C@H](C)[C@H]1C(=O)Nc2ccccc2CN1C(=O)c1cn[nH]c1` [Compound 45, (S)-3-((S)-sec-butyl)-4-(1H-pyrazole-4-carbonyl)-1,3,4,5-tetrahydro-2H-benzo[e][1,4]diazepin-2-one], for which the AC1.4 stood at 0.08 µM.
Consider `CC[C@H](C)[C@H]1C(=O)Nc2ccccc2CN1C(=O)c1cnn(C)c1` [Compound 46, (S)-3-((S)-sec-butyl)-4-(1-methyl-1H-pyrazole-4-carbonyl)-1,3,4,5-tetrahydro-2H-benzo[e][1,4]diazepin-2-one], for which the AC1.4 worked out at 0.13 µM.
`CC[C@H](C)[C@H]1C(=O)Nc2ccccc2CN1C(=O)c1cccc(=O)[nH]1` [Compound 47, (S)-3-((S)-sec-butyl)-4-(6-oxo-1,6-dihydropyridine-2-carbonyl)-1,3,4,5-tetrahydro-2H-benzo[e][1,4]diazepin-2-one]: the AC1.4 turned out to be 0.14 µM.
Then `CC[C@H](C)[C@H]1C(=O)Nc2ccccc2CN1C(=O)c1cc[nH]c(=O)c1` [Compound 48, (S)-3-((S)-sec-butyl)-4-(2-oxo-1,2-dihydropyridine-4-carbonyl)-1,3,4,5-tetrahydro-2H-benzo[d][1,4]diazepin-2-one], with 0.06 µM; and `CC[C@H](C)[C@H]1C(=O)Nc2ccccc2CN1C(=O)c1cc(O)n[nH]1` [Compound 50, (S)-3-((S)-sec-butyl)-4-(3-hydroxy-1H-pyrazole-5-carbonyl)-1,3,4,5-tetrahydro-2H-benzo[e][1,4]diazepin-2-one], with 0.17 µM.
On to `CC[C@H](C)[C@H]1C(=O)Nc2ccccc2CN1C(=O)C(C)(C)O` [Compound 51, (S)-3-((S)-sec-Butyl)-4-(2-hydroxy-2-methylpropanoyl)-1,3,4,5-tetrahydro-2H-benzo[e][1,4]diazepin-2-one], for which the AC1.4 came out at 1.23 µM.
Take `CC[C@H](C)[C@H]1C(=O)Nc2ccccc2CN1c1nc(N)cc(=O)[nH]1` [Compound 52, (S)-4-(4-Amino-6-oxo-1,6-dihydropyrimidin-2-yl)-3-((S)-sec-butyl)-1,3,4,5-tetrahydro-2H-benzo[e][1,4]diazepin-2-one]: the AC1.4 is 0.03 µM.
Then `CC[C@H](C)[C@H]1C(=O)Nc2ccccc2CN1c1nc(C)cc(=O)[nH]1` [Compound 53, (S)-3-((S)-sec-Butyl)-4-(4-methyl-6-oxo-1,6-dihydropyrimidin-2-yl)-1,3,4,5-tetrahydro-2H-benzo[e][1,4]diazepin-2-one], with 0.10 µM; and `CC[C@H](C)[C@H]1C(=O)Nc2ccccc2CN1c1cc(=O)[nH]cn1` [Compound 54, (S)-3-((S)-sec-butyl)-4-(6-oxo-1,6-dihydropyrimidin-4-yl)-1,3,4,5-tetrahydro-2H-benzo[e][1,4]diazepin-2-one], with 0.09 µM.
`CC[C@H](C)[C@H]1C(=O)Nc2ccccc2CN1c1noc(C)n1` [Compound 55, (S)-3-((S)-sec-Butyl)-4-(5-methyl-1,2,4-oxadiazol-3-yl)-1,3,4,5-tetrahydro-2H-benzo[e][1,4]diazepin-2-one]: the AC1.4 is 0.21 µM.
For the compound `CC[C@H](C)[C@H]1C(=O)Nc2ccccc2CN1c1ncon1` [Compound 56, (S)-3-((S)-sec-Butyl)-4-(1,2,4-oxadiazol-3-yl)-1,3,4,5-tetrahydro-2H-benzo[e][1,4]diazepin-2-one], the AC1.4 was found to be 0.08 µM.
For the compound `CC[C@H](C)[C@H]1C(=O)Nc2ccccc2CN1c1c(N)c(=O)c1=O` [Compound 57, 3-Amino-4-((S)-3-((S)-sec-butyl)-2-oxo-1,2,3,5-tetrahydro-4H-benzo[e][1,4]diazepin-4-yl)cyclobut-3-ene-1,2-dione], the AC1.4 came out at 0.03 µM.
The figure for `CC[C@H](C)[C@H]1C(=O)Nc2ccccc2CN1C(=O)N(C)C` [Compound 58, (S)-3-((S)-sec-butyl)-N,N-dimethyl-2-oxo-1,2,3,5-tetrahydro-4H-benzo[e][1,4]diazepine-4-carboxamide] is 0.13 µM.
As for `CC[C@H](C)[C@H]1C(=O)Nc2ccccc2CN1C(=O)N1CC(OC)C1` [Compound 59, (S)-3-((S)-sec-butyl)-4-(3-methoxyazetidine-1-carbonyl)-1,3,4,5-tetrahydro-2H-benzo[e][1,4]diazepin-2-one], the AC1.4 turned out to be 0.17 µM.
For `CC[C@H](C)[C@H]1C(=O)Nc2ccccc2CN1c1ncc(N)c(OC)n1` [Compound 60, (S)-4-(5-Amino-4-methoxypyrimidin-2-yl)-3-((S)-sec-butyl)-1,3,4,5-tetrahydro-2H-benzo[e][1,4]diazepin-2-one], the AC1.4 is 0.07 µM.
Take `CC[C@H](C)[C@H]1C(=O)Nc2ccccc2CN1c1ncncn1` [Compound 61, (S)-3-((S)-sec-Butyl)-4-(1,3,5-triazin-2-yl)-1,3,4,5-tetrahydro-2H-benzo[e][1,4]diazepin-2-one]: the AC1.4 came out at 0.07 µM.
As for `CC[C@H](C)[C@H]1C(=O)Nc2ccccc2CN1CCO` [Compound 62, (S)-3-((S)-sec-Butyl)-4-(2-hydroxyethyl)-1,3,4,5-tetrahydro-2H-benzo[e][1,4]diazepin-2-one], the AC1.4 came to 2.25 µM.
In the case of `CC[C@H](C)[C@H]1C(=O)Nc2ccccc2C(C)(C)N1C(N)=O` [Compound 63, (S)-3-((S)-sec-Butyl)-5,5-dimethyl-2-oxo-1,2,3,5-tetrahydro-4H-benzo[e][1,4]diazepine-4-carboxamide], the AC1.4 was 0.10 µM.
Take `CC[C@H](C)[C@H]1C(=O)Nc2cccc(Cl)c2CN1C(=O)N1CC(O)C1` [Compound 66, (S)-3-((S)-sec-butyl)-6-chloro-4-(3-hydroxyazetidine-1-carbonyl)-1,3,4,5-tetrahydro-2H-benzo[e][1,4]diazepin-2-one]: the AC1.4 worked out at 3.00 µM.
For the compound `CC[C@H](C)[C@H]1C(=O)Nc2cccc(Br)c2CN1C(N)=O` [Compound 67, (S)-6-bromo-3-((S)-sec-butyl)-2-oxo-1,2,3,5-tetrahydro-4H-benzo[e][1,4]diazepine-4-carboxamide], the AC1.4 came out at 2.15 µM.
`CC[C@H](C)[C@H]1C(=O)Nc2cccc(C3CC3)c2CN1C(N)=O` [Compound 68, (S)-3-((S)-sec-butyl)-6-cyclopropyl-2-oxo-1,2,3,5-tetrahydro-4H-benzo[e][1,4]diazepine-4-carboxamide]: the AC1.4 was 4.30 µM.
The figure for `CC[C@H](C)[C@H]1C(=O)Nc2ccc(F)cc2CN1C(C)=O` [Compound 69, (S)-4-acetyl-3-((S)-sec-butyl)-7-fluoro-1,3,4,5-tetrahydro-2H-benzo[e][1,4]diazepin-2-one] is 0.72 µM.
Regarding `CC[C@H](C)[C@H]1C(=O)Nc2ccc(F)cc2CN1C(=O)c1ccn[nH]1` [Compound 70, (S)-3-((S)-sec-butyl)-7-fluoro-4-(1H-pyrazole-5-carbonyl)-1,3,4,5-tetrahydro-2H-benzo[e][1,4]diazepin-2-one], the AC1.4 is 0.23 µM.
For the compound `CC[C@H](C)[C@H]1C(=O)Nc2ccc(F)cc2CN1/C(N)=N\C#N` [Compound 71, (S,Z)-3-((S)-sec-butyl)-N′-cyano-7-fluoro-2-oxo-1,2,3,5-tetrahydro-4H-benzo[e][1,4]diazepine-4-carboximidamide], the AC1.4 worked out at 0.15 µM.
The figure for `CC[C@H](C)[C@H]1C(=O)Nc2ccc(F)cc2CN1C(=O)N1CC(O)C1` [Compound 72, (S)-3-((S)-sec-butyl)-7-fluoro-4-(3-hydroxyazetidine-1-carbonyl)-1,3,4,5-tetrahydro-2H-benzo[e][1,4]diazepin-2-one] is 0.41 µM.
